# Measurements as given in patent publication US9907852B2, “Anticancer agent and side-effect-alleviating agent” (National University Corporation University of Toyama, priority 2014, dated 2018).
# Key:
# [1] = test system: PANC-1 (ATCC No. CRL-1469) cells
# Protocol: After treatment for a period of 18-24 hours, the number of survival cells was counted with a Cell Counting Kit (Dojindo).
# Solubility in water = type: physicochemical
# [2] = test system: pancreas cancer cell strain PANC-1; conditions: Non-Patent Document 1; cited from earlier work
# Miapaca-2 cells = experiment: Tumor size in model transplanted pancreas cancer, existing anticancer agents combined with Burdock Fruit extract (Test Example 6); type: in vivo, mice; conditions: anticancer agent combined with GBS-01 750 mg/kg oral 5 days a week; about 4 weeks
# Protocol: Miapaca-2 cells (5×10^6 cells/200 μl ) were subcutaneously transplanted under the armpit of BALB/cAJcl-nu/nu mice (CLEA Japan, Inc.), and after feeding of about 2 weeks those that grew to the size of about 100 mm^3 or about 600 mm^3 were selected and employed as the subject mice to be treated.
# Thus prepared transplanted mice were divided into the respective groups, that is, an untreated group, a group administered an existing anticancer agent as a component having a variety of anticancer activities, a Burdock Fruit extract administered group and a group of combined administration of these agents, and the treatment was continued over about 4 weeks for 5 to 6 species of tumors in the respective groups. The existing anticancer agents used include Carboplatin (CBDCA, Bristol-Myers, peritoneal administration, 60 mg/kg once a week), Doxorubicin (Kyowa Hakko, peritoneal administration, 10 mg/kg twice a week), Oxaliplatin (Yakult, peritoneal administration, 8 mg/kg once a week), Everolimus (Novartis, oral administration, 5 mg/kg 5 times a week) , Bortezomib (Janssen Pharma, peritoneal administration, 1 mg/kg twice a week), Irinotecan (Yakult, peritoneal administration, 25 mg/kg twice a week), and Hydroxychloroquine (Sanofi, peritoneal administration, 100 mg/kg 5 times a week) . As for Burdock Fruit extract, 10% arctigenin-containing Burdock Fruit extract (Kracie Co., GBS-01) was used and orally administered at a dose of 750 mg/kg 5 days a week.
# At intervals of 3 to 4 days, the mouse was fixed and the length (L), the minor axis (W) and the height (H) of tumor were measured by a precision digital vernier micrometer, from which the tumor size was calculated using the formula: Tumor size=4/3*pi*L/2*H/2*W/2(pi=3.14)
# When the height cannot be measured, the formula: Tumor size=4/3*pi*L/2*(W/2)^2 was used for convenience.
Compound,Magnification of LD50 decrease [1],tumor size reduced compared to a single preparation of Burdock Fruit extract (Miapaca-2 cells) [times],tumor size reduced compared to a single preparation of the anticancer agent (Miapaca-2 cells),other results
Cc1cn([C@H]2C[C@H](N=[N+]=[N-])[C@@H](CO)O2)c(=O)[nH]c1=O [AZT],4.67,,,
Nc1nc(OCc2ccccc2)c2nc[nH]c2n1 [Benzylguanine],8.24,,,
C[C@]12CC[C@H](OS(=O)(=O)O)CC1=CC[C@@H]1[C@@H]2CC[C@]2(C)C(=O)CC[C@@H]12 [DHEA-S],3.13,,,
c1cc(-c2cnn3cc(-c4ccc(OCCN5CCCCC5)cc4)cnc23)ccn1 [Dorsomorphin],6.14,,,
CNC(=N)NCCC[C@H](N)C(=O)O [L-NMMA],1.72,,,
CC(C)[C@H](CO)Nc1nc(Nc2cccc(Cl)c2)c2ncn(C(C)C)c2n1 [Purvalanol A],1.71,,,
CCCCOc1cc(CC2CNC(=O)N2)ccc1OC (centres unmarked) [Ro-20-1724],1.66,,,
COc1cc(C[C@H]2C(=O)OC[C@@H]2Cc2ccc(OC)c(OC)c2)ccc1O [arctigenin],,,,solubility in water (Solubility in water): slightly soluble; removal of the viability of tumor cells in a low nutritional state [2]: effective
COc1ccc(C[C@H]2COC(=O)[C@@H]2Cc2ccc(O[C@@H]3O[C@H](CO)[C@@H](O)[C@H](O)[C@H]3O)c(OC)c2)cc1OC [arctiin],,,,solubility in water (Solubility in water): slightly soluble
"CC(C)C[C@H](NC(=O)[C@H](Cc1ccccc1)NC(=O)c1cnccn1)B(O)O [bortezomib, Bortezomib]",,1.8,1.4 times,
"COc1cccc2c1C(=O)c1c(O)c3c(c(O)c1C2=O)C[C@@](O)(C(=O)CO)C[C@@H]3O[C@H]1C[C@H](N)[C@H](O)[C@H](C)O1 [doxorubicin, Doxorubicin]",,1.4,about 1.5 times,
"CO[C@H]1C[C@@H]2CC[C@@H](C)[C@@](O)(O2)C(=O)C(=O)N2CCCC[C@H]2C(=O)O[C@H]([C@H](C)C[C@@H]2CC[C@@H](OCCO)[C@H](OC)C2)CC(=O)[C@H](C)/C=C(\C)[C@@H](O)[C@@H](OC)C(=O)[C@H](C)C[C@H](C)/C=C/C=C/C=C/1C [everolimus, Everolimus]",,2.1,1.4 times,
CCN(CCO)CCCC(C)Nc1ccnc2cc(Cl)ccc12 (centres unmarked) [hydroxychloroquine],,1.9,2.5 times,
"CCc1c2c(nc3ccc(OC(=O)N4CCC(N5CCCCC5)CC4)cc13)-c1cc3c(c(=O)n1C2)COC(=O)[C@]3(O)CC [irinotecan, Irinotecan]",,2.1,1.5 times,
